# PubChem BioAssay AID248 (DTP/NCI, 2004)
# Several values for one entry are separate records, joined by “and”; a condition that tells them apart may be missing. Equal values may be shown once. Toxic doses and inconclusive results are not listed.
# Test system: L1210 leukemia ip in BDF1 mice, survival T/C
# Test: NCI In Vivo Anticancer Drug Screen. Data for tumor model L1210 Leukemia (intraperitoneal) in B6D2F1 (BDF1) mice
# Conditions: endpoint: mean survival time, higher = longer survival
# Procedure, shortened: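 Mice bearing the transplanted tumor received compound or vehicle. Survival of the treated group was divided by that of the vehicle-treated control group to give the ratio.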
# [1] = dose: 100.0 mg/kg/injection, schedule: Q01DX009 (ip), vehicle: Klucel (hydroxypropylcellulose) (HPC)
# [2] = dose: 100.0 mg/kg/injection, schedule: Q04DX003 (ip), vehicle: Klucel (hydroxypropylcellulose) (HPC)
# [3] = dose: 200.0 mg/kg/injection, schedule: Q01DX009 (ip), vehicle: Klucel (hydroxypropylcellulose) (HPC)
# [4] = dose: 200.0 mg/kg/injection, schedule: Q04DX003 (ip), vehicle: Klucel (hydroxypropylcellulose) (HPC)
# [5] = dose: 400.0 mg/kg/injection, schedule: Q01DX009 (ip), vehicle: Klucel (hydroxypropylcellulose) (HPC)
# [6] = dose: 400.0 mg/kg/injection, schedule: Q04DX003 (ip), vehicle: Klucel (hydroxypropylcellulose) (HPC)
# [7] = dose: 100.0 mg/kg/injection, schedule: Q04DX002 (ip), vehicle: saline with Tween-80
# [8] = dose: 200.0 mg/kg/injection, schedule: Q04DX002 (ip), vehicle: saline with Tween-80
# [9] = dose: 400.0 mg/kg/injection, schedule: Q04DX002 (ip), vehicle: saline with Tween-80
# [10] = dose: 200.0 mg/kg/injection, schedule: Q01DX009 (ip), vehicle: saline with Tween-80
# [11] = dose: 100.0 mg/kg/injection, schedule: Q01DX001 (ip), vehicle: saline
# [12] = dose: 200.0 mg/kg/injection, schedule: Q01DX001 (ip), vehicle: saline
# [13] = dose: 400.0 mg/kg/injection, schedule: Q01DX001 (ip), vehicle: saline
smiles,measurement,setting,value
O=S(=O)(O)c1ccc(Nc2ccccc2)cc1,T/C,[1],103 % of control and 100 % of control
same,T/C,[2],107 % of control and 103 % of control
same,T/C,[3],103 % of control and 102 % of control
same,T/C,[4],96 % of control and 103 % of control
same,T/C,[5],108 % of control and 102 % of control
same,T/C,[6],102 % of control and 101 % of control
COc1cc(OC)cc(-n2cccc2)c1,T/C,[7],90 % of control
same,T/C,[8],97 % of control
same,T/C,[9],87 % of control
O=C(Nc1ccc(C2=NCCN2)cc1)c1cncc(C(=O)Nc2ccc(C3=NCCN3)cc2)n1,T/C,"dose: 31.0 mg/kg/injection, schedule: Q01DX Z (ip), vehicle: carboxymethylcellulose (CMC)",109 % of control
same,T/C,"dose: 62.5 mg/kg/injection, schedule: Q01DX Z (oral), vehicle: water",94 % of control
same,T/C,"dose: 125.0 mg/kg/injection, schedule: Q01DX Z (ip), vehicle: carboxymethylcellulose (CMC)",168 % of control
same,T/C,"dose: 125.0 mg/kg/injection, schedule: Q01DX Z (oral), vehicle: water",100 % of control
same,T/C,"dose: 250.0 mg/kg/injection, schedule: Q01DX Z (ip), vehicle: carboxymethylcellulose (CMC)",227 % of control
same,T/C,"dose: 250.0 mg/kg/injection, schedule: Q01DX Z (oral), vehicle: water",97 % of control
same,T/C,"dose: 500.0 mg/kg/injection, schedule: Q01DX Z (oral), vehicle: water",97 % of control
COP(S)(=N/N=C/c1ccccn1)OC,T/C,"dose: 12.5 mg/kg/injection, schedule: Q04DX003 (ip), vehicle: saline with Tween-80",104 % of control
same,T/C,"dose: 25.0 mg/kg/injection, schedule: Q04DX003 (ip), vehicle: saline with Tween-80",95 % of control
CN(C(=O)CCC(=O)N(C)c1ccccc1)c1ccccc1,T/C,"dose: 100.0 mg/kg/injection, schedule: Q01DX009 (ip), vehicle: saline with Tween-80",97 % of control
same,T/C,[10],87 % of control
CCSC1=C(N2CC2)C(=O)C(SCC)=C(N2CC2)C1=O,T/C,"dose: 150.0 mg/kg/injection, schedule: Q04DX003 (ip), vehicle: saline",96 % of control
same,T/C,"dose: 225.0 mg/kg/injection, schedule: Q04DX003 (ip), vehicle: saline",96 % of control
O=c1[nH]cnc2nc(-c3ccc(Cl)cc3)c(-c3ccc(Cl)cc3)nc12,T/C,"dose: 50.0 mg/kg/injection, schedule: Q01DX009 (ip), vehicle: Klucel (hydroxypropylcellulose) (HPC)",92 % of control
same,T/C,[1],103 % of control
same,T/C,[3],92 % of control
CCOC(=O)CCN(Cc1ccccc1)C(COC)C(=O)OCC (configuration not stated),T/C,[11],97 % of control
same,T/C,[12],90 % of control
same,T/C,[13],101 % of control
O=[N+]([O-])c1ccc(Oc2cccc(C(F)(F)F)c2)nc1,T/C,[1],101 % of control
same,T/C,[2],101 % of control
same,T/C,[3],103 % of control
same,T/C,[4],95 % of control
same,T/C,[5],107 % of control
same,T/C,[6],101 % of control
OC1(c2ccccc2)CCC1,T/C,"dose: 62.0 mg/kg/injection, schedule: Q01DX009 (ip), vehicle: saline with Tween-80",91 % of control
same,T/C,"dose: 125.0 mg/kg/injection, schedule: Q01DX009 (ip), vehicle: saline with Tween-80",99 % of control
same,T/C,"dose: 250.0 mg/kg/injection, schedule: Q01DX009 (ip), vehicle: saline with Tween-80",97 % of control
CC1=CC(O)Nc2c(CBr)cccc21 (configuration not stated),T/C,"dose: 25.0 mg/kg/injection, schedule: Q01DX009 (ip), vehicle: saline with Tween-80",97 % of control
same,T/C,"dose: 50.0 mg/kg/injection, schedule: Q01DX009 (ip), vehicle: saline with Tween-80",103 % of control
same,T/C,[11],107 % of control
same,T/C,"dose: 100.0 mg/kg/injection, schedule: Q04DX003 (ip), vehicle: saline",101 % of control
same,T/C,[12],95 % of control
same,T/C,[13],91 % of control
C[N+](C)(C)Cc1ccccc1,T/C,"dose: 1.56 mg/kg/injection, schedule: Q01DX009 (ip), vehicle: saline",102 % of control
same,T/C,"dose: 3.12 mg/kg/injection, schedule: Q01DX009 (ip), vehicle: saline",91 % of control
same,T/C,"dose: 5.0 mg/kg/injection, schedule: Q01DX001 (ip), vehicle: saline",98 % of control
same,T/C,"dose: 6.25 mg/kg/injection, schedule: Q01DX009 (ip), vehicle: saline",117 % of control
same,T/C,"dose: 6.5 mg/kg/injection, schedule: Q01DX009 (ip), vehicle: saline",100 % of control
same,T/C,"dose: 10.0 mg/kg/injection, schedule: Q01DX001 (ip), vehicle: saline",102 % of control and 109 % of control
same,T/C,"dose: 12.0 mg/kg/injection, schedule: Q04DX003 (ip), vehicle: saline",113 % of control
same,T/C,"dose: 12.5 mg/kg/injection, schedule: Q01DX009 (ip), vehicle: saline",100 % of control
same,T/C,"dose: 20.0 mg/kg/injection, schedule: Q01DX001 (ip), vehicle: saline",98 % of control and 91 % of control
same,T/C,"dose: 25.0 mg/kg/injection, schedule: Q01DX009 (ip), vehicle: saline",99 % of control and 107 % of control
same,T/C,"dose: 25.0 mg/kg/injection, schedule: Q04DX003 (ip), vehicle: saline",87 % of control
same,T/C,"dose: 50.0 mg/kg/injection, schedule: Q01DX009 (ip), vehicle: saline",96 % of control
same,T/C,"dose: 100.0 mg/kg/injection, schedule: Q01DX009 (ip), vehicle: saline",96 % of control
CC(C)OC1=CC2C(=CCC3C2(C)C(=O)CC2(C)C(C(C)(O)C(=O)/C=C/C(C)(C)O)C(O)CC32C)C(C)(C)C1=O (configuration not stated),T/C,"dose: 37.5 mg/kg/injection, schedule: Q04DX002 (ip), vehicle: saline with Tween-80",101 % of control
same,T/C,"dose: 75.0 mg/kg/injection, schedule: Q04DX002 (ip), vehicle: saline with Tween-80",93 % of control
same,T/C,"dose: 150.0 mg/kg/injection, schedule: Q04DX002 (ip), vehicle: saline with Tween-80",108 % of control
CCC(O)c1cnc(OCc2ccccc2)nc1OCc1ccccc1 (configuration not stated),T/C,[1],94 % of control
same,T/C,[2],96 % of control
same,T/C,[3],95 % of control
same,T/C,[4],95 % of control
same,T/C,[5],90 % of control
same,T/C,[6],100 % of control
O=C(NC(=S)Nc1cc(C(F)(F)F)ccc1Cl)c1ccccc1F,T/C,"dose: 12.5 mg/kg/injection, schedule: Q01DX009 (ip), vehicle: saline with Tween-80",93 % of control and 97 % of control
same,T/C,"dose: 100.0 mg/kg/injection, schedule: Q01DX001 (ip), vehicle: saline with Tween-80",104 % of control
same,T/C,[7],97 % of control and 100 % of control
same,T/C,"dose: 200.0 mg/kg/injection, schedule: Q01DX001 (ip), vehicle: saline with Tween-80",102 % of control
same,T/C,[10],86 % of control
same,T/C,[8],93 % of control and 97 % of control
same,T/C,"dose: 400.0 mg/kg/injection, schedule: Q01DX001 (ip), vehicle: saline with Tween-80",102 % of control
same,T/C,"dose: 400.0 mg/kg/injection, schedule: Q01DX009 (ip), vehicle: saline with Tween-80",95 % of control
same,T/C,[9],100 % of control and 91 % of control
same,T/C,"dose: 400.0 mg/kg/injection, schedule: Q04DX003 (ip), vehicle: saline with Tween-80",87 % of control
CS(=O)c1ccc2c(c1)-c1ccccc1C2=O (configuration not stated),T/C,"dose: 50.0 mg/kg/injection, schedule: Q01DX001 (ip), vehicle: carboxymethylcellulose (CMC)",95 % of control
same,T/C,"dose: 100.0 mg/kg/injection, schedule: Q01DX001 (ip), vehicle: carboxymethylcellulose (CMC)",101 % of control
same,T/C,"dose: 200.0 mg/kg/injection, schedule: Q01DX001 (ip), vehicle: carboxymethylcellulose (CMC)",95 % of control
same,T/C,"dose: 400.0 mg/kg/injection, schedule: Q01DX001 (ip), vehicle: carboxymethylcellulose (CMC)",101 % of control
C=C(C)C1CNC(C(=O)O)C1CC(=O)O (configuration not stated),T/C,"dose: 6.25 mg/kg/injection, schedule: Q01DX009 (ip), vehicle: saline sonified",102 % of control
same,T/C,"dose: 12.5 mg/kg/injection, schedule: Q01DX009 (ip), vehicle: saline sonified",86 % of control
C=CC/C=C/C,T/C,"dose: 100.0 mg/kg/injection, schedule: Q01DX001 (ip), vehicle: Klucel (hydroxypropylcellulose) (HPC)",93 % of control
same,T/C,"dose: 200.0 mg/kg/injection, schedule: Q01DX001 (ip), vehicle: Klucel (hydroxypropylcellulose) (HPC)",109 % of control
same,T/C,"dose: 400.0 mg/kg/injection, schedule: Q01DX001 (ip), vehicle: Klucel (hydroxypropylcellulose) (HPC)",100 % of control
COc1ccc(NC(=O)OCCN(CCOC(=O)Nc2ccc(OC)cc2)Cc2ccccc2)cc1,T/C,[11],94 % of control
same,T/C,[12],96 % of control
same,T/C,[13],100 % of control
CC1(C)CCCC2(C)C1CC(O)C1(CO1)C2CCC(C)(O)C1CO1 (configuration not stated),T/C,"dose: 25.0 mg/kg/injection, schedule: Q01DX009 (ip), vehicle: DMSO",92 % of control
same,T/C,"dose: 25.0 mg/kg/injection, schedule: Q04DX003 (ip), vehicle: DMSO",88 % of control
same,T/C,"dose: 50.0 mg/kg/injection, schedule: Q01DX009 (ip), vehicle: DMSO",96 % of control
same,T/C,"dose: 50.0 mg/kg/injection, schedule: Q04DX003 (ip), vehicle: DMSO",93 % of control
same,T/C,"dose: 100.0 mg/kg/injection, schedule: Q04DX003 (ip), vehicle: DMSO",97 % of control and 92 % of control
